# Active and inactive are the calls of the source. No cut-off for these calls is given here.
# What was measured:
# [1] = Growth inhibition of human MDA-MB-231 cells after 48 hrs by MTT assay; format: functional, cell-based; details: MDA-MB-231, 48 h
# HT-29 = experiment: Potency index, ratio of resveratrol IC50 to compound IC50 for human HT-29 cells; format: functional
# [2] = Growth inhibition of human HT-29 cells after 48 hrs by MTT assay; format: functional, cell-based; details: HT-29, 48 h
# MDA-MB-231 [3] = experiment: Induction of apoptosis in human MDA-MB-231 cells assessed as necrotic cells at 8 uM after 48 hrs by Annexin-V FITC/propidium iodide staining based flow cytometry (reference value: 0.8%); format: functional
# MDA-MB-231 [4] = experiment: Induction of apoptosis in human MDA-MB-231 cells assessed as increase in cleaved caspase-3 expression after 48 hrs by Western blot method; format: functional, cell-based
# [5] = biological target: Signal transducer and activator of transcription 3 (Homo sapiens) (UniProt P40763); experiment: Inhibition of STAT3 phosphorylation at Tyr-705 residue in human MDA-MB-231 cells after 48 hrs by Western blot method; format: cell-based
# MDA-MB-231 [6] = experiment: Induction of apoptosis in human MDA-MB-231 cells assessed as late apoptotic cells at 8 uM after 48 hrs by Annexin-V FITC/propidium iodide staining based flow cytometry (reference value: 0.4%); format: functional
# MDA-MB-231 [7] = experiment: Induction of apoptosis in human MDA-MB-231 cells assessed as early apoptotic cells at 5 uM after 48 hrs by Annexin-V FITC/propidium iodide staining based flow cytometry (reference value: 2.6%); format: functional
# MDA-MB-231 [8] = experiment: Induction of apoptosis in human MDA-MB-231 cells assessed as early apoptotic cells at 10 uM after 48 hrs by Annexin-V FITC/propidium iodide staining based flow cytometry (reference value: 2.6%); format: functional
# MDA-MB-231 [9] = experiment: Induction of apoptosis in human MDA-MB-231 cells assessed as necrotic cells at 2 uM after 48 hrs by Annexin-V FITC/propidium iodide staining based flow cytometry (reference value: 0.8%); format: functional
# MDA-MB-231 [10] = experiment: Potency index, ratio of resveratrol IC50 to compound IC50 for human MDA-MB-231 cells; format: functional
# MDA-MB-231 [11] = experiment: Induction of apoptosis in human MDA-MB-231 cells assessed as late apoptotic cells at 5 uM after 48 hrs by Annexin-V FITC/propidium iodide staining based flow cytometry (reference value: 0.4%); format: functional
# 4T1 = experiment: Antitumor activity against mouse 4T1 cells implanted in Kunming mouse assessed as tumor growth inhibition at 10 to 20 mg/kg, po qd for 14 days; format: functional, organism-based
# Mus musculus [12] = experiment: In vivo inhibition of STAT3 phosphorylation at Tyr-705 residue in tumor of Kunming mouse implanted with mouse 4T1 cells at 10 to 20 mg/kg, po qd for 14 days; format: functional, organism-based
# MDA-MB-231 [13] = experiment: Potency index, ratio of caffeic acid IC50 to compound IC50 for human MDA-MB-231 cells; format: functional
# [14] = biological target: Signal transducer and activator of transcription 3 (Homo sapiens) (UniProt P40763); experiment: Inhibition of STAT3 acetylation at Lys-685 residue in human MDA-MB-231 cells after 48 hrs by Western blot method; format: cell-based
# MDA-MB-231 [15] = experiment: Induction of apoptosis in human MDA-MB-231 cells assessed as late apoptotic cells at 1 uM after 48 hrs by Annexin-V FITC/propidium iodide staining based flow cytometry (reference value: 0.4%); format: functional
# MDA-MB-231 [16] = experiment: Induction of apoptosis in human MDA-MB-231 cells assessed as late apoptotic cells at 10 uM after 48 hrs by Annexin-V FITC/propidium iodide staining based flow cytometry (reference value: 0.4%); format: functional
# MDA-MB-231 [17] = experiment: Induction of apoptosis in human MDA-MB-231 cells assessed as increase in cleaved caspase-9 expression after 48 hrs by Western blot method; format: functional, cell-based
# MDA-MB-231 [18] = experiment: Induction of apoptosis in human MDA-MB-231 cells assessed as live cells at 5 uM after 48 hrs by Annexin-V FITC/propidium iodide staining based flow cytometry (reference value: 96.1%); format: functional
# MDA-MB-231 [19] = experiment: Induction of apoptosis in human MDA-MB-231 cells assessed as live cells at 10 uM after 48 hrs by Annexin-V FITC/propidium iodide staining based flow cytometry (reference value: 96.1%); format: functional
# MDA-MB-231 [20] = experiment: Induction of apoptosis in human MDA-MB-231 cells assessed as live cells at 8 uM after 48 hrs by Annexin-V FITC/propidium iodide staining based flow cytometry (reference value: 96.1%); format: functional
# MDA-MB-231 [21] = experiment: Induction of apoptosis in human MDA-MB-231 cells assessed as increase in cleaved caspase-8 expression after 48 hrs by Western blot method; format: functional, cell-based
# [22] = biological target: Signal transducer and activator of transcription 3 (Homo sapiens) (UniProt P40763); experiment: Inhibition of STAT3 acetylation at Lys-685 residue in human MDA-MB-231 cells assessed as increase in PTPN6 mRNA at 1- 10 uM expression after 48 hrs by RT-PCR method; format: cell-based
# [23] = biological target: Signal transducer and activator of transcription 3 (Homo sapiens) (UniProt P40763); experiment: Inhibition of STAT3 phosphorylation at Tyr-705 residue in human MDA-MB-231 cells assessed as decrease in Bcl2 protein expression at 1 to 5 uM after 48 hrs by Western blot method; format: cell-based
# MDA-MB-231 [24] = experiment: Induction of apoptosis in human MDA-MB-231 cells assessed as late apoptotic cells at 2 uM after 48 hrs by Annexin-V FITC/propidium iodide staining based flow cytometry (reference value: 0.4%); format: functional
# [25] = biological target: Signal transducer and activator of transcription 3 (Homo sapiens) (UniProt P40763); experiment: Inhibition of STAT3 phosphorylation at Tyr-705 residue in human MDA-MB-231 cells assessed as decrease in Bcl2 mRNA expression at 1 to 5 uM after 48 hrs by RT-PCR method; format: cell-based
# MDA-MB-231 [26] = experiment: Induction of apoptosis in human MDA-MB-231 cells assessed as early apoptotic cells at 2 uM after 48 hrs by Annexin-V FITC/propidium iodide staining based flow cytometry (reference value: 2.6%); format: functional
# [27] = biological target: Signal transducer and activator of transcription 3 (Homo sapiens) (UniProt P40763); experiment: Inhibition of STAT3 acetylation at Lys-685 residue in human MDA-MB-231 cells assessed as increase in CDKN2A mRNA at 1- 10 uM expression after 48 hrs by RT-PCR method; format: cell-based
# Mus musculus [28] = experiment: Toxicity in Kunming mouse implanted with mouse 4T1 cells assessed as body weight loss at 10 to 20 mg/kg, po qd for 14 days measured during compound dosing; format: organism-based; details: in vivo, 336 h
# MDA-MB-231 [29] = experiment: Induction of apoptosis in human MDA-MB-231 cells assessed as early apoptotic cells at 8 uM after 48 hrs by Annexin-V FITC/propidium iodide staining based flow cytometry (reference value: 2.6%); format: functional
# MDA-MB-231 [30] = experiment: Induction of apoptosis in human MDA-MB-231 cells assessed as early apoptotic cells at 1 uM after 48 hrs by Annexin-V FITC/propidium iodide staining based flow cytometry (reference value: 2.6%); format: functional
# [31] = biological target: Signal transducer and activator of transcription 3 (Homo sapiens) (UniProt P40763); experiment: Inhibition of STAT3 acetylation at Lys-685 residue in human MDA-MB-231 cells assessed as increase in DLEC1 mRNA at 1- 10 uM expression after 48 hrs by RT-PCR method; format: cell-based
# [32] = Effect on total STAT3 protein level in human MDA-MB-231 cells at 1 to 5 uM after 48 hrs by Western blot method; format: ADME, cell-based; details: mda-mb-231, 48 h
# MDA-MB-231 [33] = experiment: Induction of apoptosis in human MDA-MB-231 cells assessed as necrotic cells at 1 uM after 48 hrs by Annexin-V FITC/propidium iodide staining based flow cytometry (reference value: 0.8%); format: functional
# MDA-MB-231 [34] = experiment: Induction of apoptosis in human MDA-MB-231 cells assessed as necrotic cells at 10 uM after 48 hrs by Annexin-V FITC/propidium iodide staining based flow cytometry (reference value: 0.8%); format: functional
# [35] = biological target: Signal transducer and activator of transcription 3 (Homo sapiens) (UniProt P40763); experiment: Inhibition of STAT3 phosphorylation at Tyr-705 residue in human MDA-MB-231 cells assessed as decrease in Cyclin D1 mRNA expression at 1 to 5 uM after 48 hrs by RT-PCR method; format: cell-based
# MDA-MB-231 [36] = experiment: Induction of apoptosis in human MDA-MB-231 cells assessed as live cells at 2 uM after 48 hrs by Annexin-V FITC/propidium iodide staining based flow cytometry (reference value: 96.1%); format: functional
# MDA-MB-231 [37] = experiment: Induction of apoptosis in human MDA-MB-231 cells assessed as necrotic cells at 5 uM after 48 hrs by Annexin-V FITC/propidium iodide staining based flow cytometry (reference value: 0.8%); format: functional
# [38] = biological target: Signal transducer and activator of transcription 3 (Homo sapiens) (UniProt P40763); experiment: Inhibition of STAT3 phosphorylation at Tyr-705 residue in human MDA-MB-231 cells assessed as decrease in Cyclin D1 protein expression at 1 to 5 uM after 48 hrs by Western blot method; format: cell-based
# MDA-MB-231 [39] = experiment: Antiproliferative activity against human MDA-MB-231 cells assessed as inhibition of colony formation after 48 hrs by crystal violet staining based assay; format: functional, cell-based
# MDA-MB-231 [40] = experiment: Induction of apoptosis in human MDA-MB-231 cells assessed as live cells at 1 uM after 48 hrs by Annexin-V FITC/propidium iodide staining based flow cytometry (reference value: 96.1%); format: functional
# Mus musculus [41] = experiment: Toxicity in Kunming mouse implanted with mouse 4T1 cells assessed as body weight loss at 1 mg/kg, ip administered once in 4 days for 14 days measured during compound dosing; format: organism-based; details: in vivo
# Chain of Signal transducer and activator of transcription 3 (Homo sapiens) (P40763 whole entry): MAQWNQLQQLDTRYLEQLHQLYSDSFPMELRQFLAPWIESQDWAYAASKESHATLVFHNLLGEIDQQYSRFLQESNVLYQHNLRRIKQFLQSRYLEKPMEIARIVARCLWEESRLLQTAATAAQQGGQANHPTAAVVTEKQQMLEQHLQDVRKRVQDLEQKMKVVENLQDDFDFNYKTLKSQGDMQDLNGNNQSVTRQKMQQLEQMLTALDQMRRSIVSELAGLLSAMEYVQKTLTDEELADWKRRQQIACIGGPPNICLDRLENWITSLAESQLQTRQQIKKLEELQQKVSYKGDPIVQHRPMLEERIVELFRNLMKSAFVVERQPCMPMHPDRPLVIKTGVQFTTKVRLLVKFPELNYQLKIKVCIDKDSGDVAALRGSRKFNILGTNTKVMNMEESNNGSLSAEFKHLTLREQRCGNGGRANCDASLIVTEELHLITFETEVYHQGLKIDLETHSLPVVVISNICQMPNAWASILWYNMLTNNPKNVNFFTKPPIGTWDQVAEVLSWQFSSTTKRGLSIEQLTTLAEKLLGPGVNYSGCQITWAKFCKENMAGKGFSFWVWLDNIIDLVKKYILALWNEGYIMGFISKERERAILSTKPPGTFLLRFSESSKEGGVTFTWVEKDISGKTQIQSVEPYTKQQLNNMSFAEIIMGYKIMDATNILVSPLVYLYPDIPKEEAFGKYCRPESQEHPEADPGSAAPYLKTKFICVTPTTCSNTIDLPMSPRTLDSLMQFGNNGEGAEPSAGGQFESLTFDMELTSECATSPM
smiles,measurement,setting,value
COc1cc(/C=C/c2ccc(NC(=O)/C=C/c3ccc(OC)c(OC)c3)cc2)cc(OC)c1,IC50,[1],7.74 µM
same,Ratio IC50,HT-29,>50
same,IC50,[2],0.96 µM
COc1cc(/C=C/c2ccc(NC(=O)/C=C/c3ccc(Cl)cc3)cc2)cc(OC)c1,IC50,[1],14.1 µM
same,IC50,[2],10.3 µM
COc1cc(/C=C/c2ccc(OC(=O)/C=C/c3ccc(F)cc3)cc2)cc(OC)c1,IC50,[1],6.21 µM
same,IC50,[2],7.77 µM
COc1cc(/C=C/c2ccc(NC(=O)/C=C/c3ccc(C#N)cc3)cc2)cc(OC)c1,IC50,[1],7.74 µM
same,IC50,[2],3.32 µM
COc1cc(/C=C/c2ccc(NC(=O)/C=C/c3ccc(F)cc3)cc2)cc(OC)c1,IC50,[1],9.39 µM
same,IC50,[2],11.6 µM
COc1ccc(/C=C/C(=O)Nc2ccc(/C=C/c3cc(OC)cc(OC)c3)cc2)cc1,IC50,[1],4.23 µM
same,IC50,[2],5.96 µM
COc1cc(/C=C/c2ccc(NC(=O)/C=C/c3cc(OC)c(OC)c(OC)c3)cc2)cc(OC)c1,Activity,MDA-MB-231 [3],0.6%
same,Activity,MDA-MB-231 [4],Dose-dependent effect
same,inhibition,[5],Dose-dependent effect
same,Activity,MDA-MB-231 [6],6.2%
same,Activity,MDA-MB-231 [7],16.2%
same,Activity,MDA-MB-231 [8],74.6%
same,IC50,[1],2.14 µM
same,Activity,MDA-MB-231 [9],1.3%
same,Ratio IC50,MDA-MB-231 [10],>50
same,Activity,MDA-MB-231 [11],4.7%
same,TGI,4T1,Active
same,inhibition,Mus musculus [12],Active
same,Ratio IC50,MDA-MB-231 [13],>50
same,inhibition,[14],Dose-dependent effect
same,Activity,MDA-MB-231 [15],1.3%
same,Activity,MDA-MB-231 [16],10.6%
same,Activity,MDA-MB-231 [17],Dose-dependent effect
same,Activity,MDA-MB-231 [18],78%
same,Activity,MDA-MB-231 [19],18.5%
same,Activity,MDA-MB-231 [20],51.8%
same,Activity,MDA-MB-231 [21],Active
same,inhibition,[22],Active
same,inhibition,[23],Active
same,Activity,MDA-MB-231 [24],1.4%
same,inhibition,[25],Active
same,Activity,MDA-MB-231 [26],9.8%
same,inhibition,[27],Active
same,Activity,Mus musculus [28],Non-Toxic
same,Activity,MDA-MB-231 [29],37.1%
same,Activity,MDA-MB-231 [30],7.7%
same,inhibition,[31],Active
same,Activity,[32],Non-Toxic
same,Activity,MDA-MB-231 [33],1.3%
same,Activity,MDA-MB-231 [34],0.7%
same,inhibition,[35],Active
same,Activity,MDA-MB-231 [36],87.5%
same,Activity,MDA-MB-231 [37],1.1%
same,inhibition,[38],Active
same,inhibition,MDA-MB-231 [39],Dose-dependent effect
same,IC50,[2],1.82 µM
same,Activity,MDA-MB-231 [40],89.7%
COc1cc(/C=C/c2ccc(NC(=O)/C=C/c3cc(OC)c(O)c(OC)c3)cc2)cc(OC)c1,IC50,[1],7.13 µM
same,IC50,[2],3.08 µM
COc1cc(/C=C/c2ccc(OC(=O)/C=C/c3cc(OC)c(OC)c(OC)c3)cc2)cc(OC)c1,IC50,[1],3.08 µM
same,IC50,[2],2.91 µM
COc1cc(/C=C/c2ccc(NC(=O)/C=C/c3ccc(C(F)(F)F)cc3)cc2)cc(OC)c1,IC50,[1],3.52 µM
same,IC50,[2],1.78 µM
COc1cccc2c1C(=O)c1c(O)c3c(c(O)c1C2=O)C[C@@](O)(C(=O)CO)C[C@@H]3O[C@H]1C[C@H](N)[C@H](O)[C@H](C)O1 [DOXORUBICIN],Activity,Mus musculus [41],Toxic
COc1cc(/C=C/c2ccc(NC(=O)/C=C/c3ccc(F)cc3F)cc2)cc(OC)c1,IC50,[1],> 20 µM
same,IC50,[2],18.1 µM
